Laboratory results as given in ChEMBL document CHEMBL1201862, “PubChem BioAssay data set” (2004).
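Five compound concentrations were applied to cells in 96-well plates for 48 hours; endpoints were derived by simple linear interpolation of the resulting dose-response curve. GI50 is the concentration that inhibits growth by half.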 Calls of active or inactive are those of the source. Cut-off read from the data, not from the text of the source: active = GI50 up to about 1.1 µM and inactive = higher.

Legend:
Assay in all cases: inhibition of tumour cell growth, NCI panel, 48 h
UACC-257 = tested on: UACC-257
OVCAR-8 = tested on: OVCAR-8
K562 = tested on: K562
SF-295 = tested on: SF-295
NCI-H226 = tested on: NCI-H226
EKVX = tested on: EKVX
SF-268 = tested on: SF-268
786-0 = tested on: 786-0
DMS-114 = tested on: DMS-114
SN12C = tested on: SN12C
OVCAR-3 = tested on: OVCAR-3
SNB-75 = tested on: SNB-75
SK-MEL-2 = tested on: SK-MEL-2
HCC 2998 = tested on: HCC 2998
RXF 393 = tested on: RXF 393
NCI-H23 = tested on: NCI-H23

Measured: GI50

CC(C)CCC[C@@H](C)C1CCC2[C@@H]3CC=C4C[C@@H](OC(=O)CCC(=O)NCC[N+](C)(C)CCCS(=O)(=O)[O-])CC[C@]4(C)C3CC[C@@]21C (some centres undefined)
inactive: UACC-257 23.2 µM | OVCAR-8 18.6 µM | K562 18.9 µM | SF-295 17 µM | NCI-H226 27.4 µM | EKVX 29.2 µM | SF-268 19.3 µM | 786-0 25.8 µM | DMS-114 20.6 µM | SN12C 19.5 µM | OVCAR-3 17.9 µM | SNB-75 21.1 µM | SK-MEL-2 18.8 µM | HCC 2998 20.6 µM | RXF 393 11.3 µM

COc1ccc(/C(=N\NC(=S)NN)C(c2ccc(OC)cc2)C2C(=O)Oc3ccccc32)cc1 (centres undefined)
inactive: UACC-257 > 10 µM | OVCAR-8 > 10 µM | K562 > 10 µM | SF-295 > 10 µM | NCI-H226 > 10 µM | EKVX > 10 µM | SF-268 > 10 µM | NCI-H23 > 10 µM | 786-0 > 10 µM | DMS-114 14.8 µM | SN12C > 10 µM | OVCAR-3 > 10 µM | SNB-75 > 10 µM | SK-MEL-2 > 10 µM | HCC 2998 9.31 µM | RXF 393 > 10 µM

Nc1ncnc(NC2C=C(CO)C(O)C2O)c1[N+](=O)[O-] (centres undefined)
inactive: UACC-257 > 100 µM | OVCAR-8 > 100 µM | K562 > 100 µM | SF-295 > 100 µM | NCI-H226 > 100 µM | EKVX > 100 µM | SF-268 > 100 µM | NCI-H23 > 100 µM | 786-0 > 100 µM | DMS-114 > 100 µM | SN12C > 100 µM | OVCAR-3 > 100 µM | SNB-75 > 100 µM | SK-MEL-2 > 100 µM | HCC 2998 > 100 µM | RXF 393 > 100 µM

CCC1=C(C)/C(=C/c2[nH]c(C(Br)Br)c(CC)c2C)N=C1C(Br)Br
inactive: UACC-257 19.9 µM | OVCAR-8 26.6 µM | K562 24.2 µM | SF-295 26.1 µM | NCI-H226 20.1 µM | EKVX 30.1 µM | SF-268 73.3 µM | NCI-H23 32.4 µM | 786-0 63.2 µM | DMS-114 19 µM | SN12C 31.2 µM | OVCAR-3 23.2 µM | SNB-75 21.6 µM | SK-MEL-2 38 µM | HCC 2998 12.8 µM | RXF 393 29.9 µM

COC1CCC(OC)C(C2(C3CC(OC)CCC3OC)OC(=O)c3ccccc32)C1 (centres undefined)
inactive: UACC-257 > 100 µM | OVCAR-8 > 100 µM | K562 22.2 µM | SF-295 82.2 µM | NCI-H226 86.7 µM | EKVX 60.8 µM | SF-268 > 100 µM | NCI-H23 80.7 µM | 786-0 > 100 µM | DMS-114 55.7 µM | SN12C > 100 µM | OVCAR-3 75.9 µM | SNB-75 > 100 µM | SK-MEL-2 93.8 µM | HCC 2998 66.4 µM | RXF 393 > 100 µM

CC12CCC(=O)N1c1cc([N+](=O)[O-])ccc1N2 (centres undefined)
inactive: UACC-257 > 100 µM | OVCAR-8 > 100 µM | K562 > 100 µM | SF-295 > 100 µM | NCI-H226 > 100 µM | EKVX > 100 µM | SF-268 > 100 µM | NCI-H23 > 100 µM | 786-0 > 100 µM | DMS-114 > 100 µM | SN12C > 100 µM | OVCAR-3 > 100 µM | SNB-75 > 100 µM | SK-MEL-2 > 100 µM | RXF 393 > 100 µM

CCOC(=O)C1S/C(=N\c2cccc(Cl)c2C)N=C1C (centres undefined)
inactive: UACC-257 > 10 µM | OVCAR-8 21.3 µM | K562 34.1 µM | SF-295 18.8 µM | NCI-H226 32.8 µM | EKVX > 10 µM | SF-268 30.5 µM | NCI-H23 > 10 µM | 786-0 16.1 µM | DMS-114 30.4 µM | SN12C 18.8 µM | OVCAR-3 22.9 µM | SNB-75 16.3 µM | SK-MEL-2 19.5 µM | HCC 2998 > 10 µM | RXF 393 21.7 µM

Cc1cc(C)nc(/C(=N\NC(N)=O)C(=O)Nc2nc3ccc(C)cc3s2)c1
inactive: UACC-257 > 100 µM | OVCAR-8 > 100 µM | K562 > 61.4 µM | SF-295 > 100 µM | NCI-H226 > 100 µM | EKVX > 100 µM | SF-268 > 100 µM | NCI-H23 > 100 µM | 786-0 > 100 µM | DMS-114 > 48.5 µM | SN12C > 100 µM | OVCAR-3 > 100 µM | SNB-75 > 100 µM | SK-MEL-2 > 100 µM | HCC 2998 > 100 µM | RXF 393 > 100 µM

O=C(OC1CC(n2cc(F)c(=O)[nH]c2=O)OC1CSC(=O)c1ccccc1)c1ccccc1 (centres undefined)
inactive: UACC-257 29.2 µM | OVCAR-8 34.8 µM | K562 54.3 µM | SF-295 33.7 µM | NCI-H226 31.3 µM | EKVX 33.3 µM | SF-268 25.4 µM | NCI-H23 26.4 µM | 786-0 32.1 µM | DMS-114 37.3 µM | SN12C 28.1 µM | OVCAR-3 23.4 µM | SNB-75 19.4 µM | SK-MEL-2 48.5 µM | HCC 2998 4.85 µM | RXF 393 27.3 µM

CC(=O)OCCOCNC(=S)N/N=C(\C)c1cnccn1
inactive: UACC-257 43.1 µM | OVCAR-8 30.1 µM | K562 30.5 µM | SF-295 36.3 µM | NCI-H226 28.1 µM | EKVX 22.3 µM | SF-268 17.5 µM | NCI-H23 58.2 µM | 786-0 33.4 µM | DMS-114 16.8 µM | SN12C 29.7 µM | OVCAR-3 23.7 µM | SNB-75 33.5 µM | SK-MEL-2 > 100 µM | HCC 2998 29 µM | RXF 393 23.2 µM

N#C/C(=C\c1cc(O)cc(O)c1)C(N)=O
inactive: UACC-257 > 100 µM | OVCAR-8 > 100 µM | K562 > 100 µM | SF-295 > 100 µM | NCI-H226 > 100 µM | EKVX > 100 µM | SF-268 > 100 µM | NCI-H23 > 100 µM | 786-0 > 100 µM | DMS-114 > 100 µM | SN12C > 100 µM | OVCAR-3 > 100 µM | SNB-75 22 µM | SK-MEL-2 > 100 µM | HCC 2998 > 100 µM | RXF 393 > 100 µM

C[N+](C)(C)CCC(=O)CC[N+](C)(C)C
inactive: UACC-257 17.6 µM | OVCAR-8 19.8 µM | K562 6.68 µM | SF-295 18.7 µM | EKVX 55.3 µM | SF-268 22.1 µM | NCI-H23 24.5 µM | 786-0 18.9 µM | DMS-114 20.8 µM | SN12C > 10 µM | OVCAR-3 18.6 µM | SNB-75 19.9 µM | SK-MEL-2 21.5 µM | HCC 2998 16.2 µM | RXF 393 21.3 µM
